In one test the test system is N1-S1 hepatoma. The experiment in a line: Additional comparison study, hepatocellular rat model, TAE combined with anti-glycolytic agents (Example 2). Particulars: over four weeks. It counts as in vivo, Sprague Dawley rats. How it is done: To determine if anti-glycolytic agents (AG) combined with transarterial embolization (TAE) improves treatment of an N1-S1 tumor model implanted in Sprague-Dawley rat livers. The animal experiments were approved by the Institutional Animal Care and Use Committee. […] The agents were slowly injected within 2 minutes. […] Tumor volume (V) was calculated by the formula: V=0.5*L*W*H. Relative tumor volume after treatment was calculated as the percentage of pre-treatment tumor volume. Kruskal-Wallis test with Minitab 16 was used to compare the difference of relative tumor volume between 4 groups on each observation time point.

For another test, the system named is Ki67. The experiment in a line: IHC stain for Ki67 proliferation marker in tumor tissue. Conditions: after 3-week therapy, mean±SD. It counts as in vivo, athymic nude mice. Here is the method: Once the final DCE-MRI scans were complete at the end of the therapy, the mice were intravenously injected with 60 mg/kg of pimonidazole, an established marker for the detection of tissue hypoxia. After one hour following the pimonidazole staining, the tumors from these mice were resected for further biological analysis. Half of each tumor that was collected was snap-frozen in liquid nitrogen for western blot, while the other half was sliced into thin sections and formalin-fixed/paraffin-imbedded for immunohistochemistry (IHC) staining. For western blot, cell lysates from the frozen tissue were prepared by homogenizing entire tumor tissues in RIPA lysis buffer supplemented with a Halt protease inhibitor cocktail (Thermo Fisher Scientific). […] Image J software was utilized to quantify the relative protein expression of HIF-1α from the blots by calculating the total pixel intensity from each protein band, and then normalizing these signals with its corresponding β-actin stain. […]
Despite the fact that bumetanide inhibited angiogenesis and induced vascular regression, the therapy was not able to slow down the tumor growth rate over the course of the study. […] A Ki67 index was calculated by determining the percentage of nuclei in a given area of the tissue expressed this factor.

The subject of another test is VEGF. The experiment in a line: Western blot and IHC of VEGF in tumor tissue. It counts as in vivo, athymic nude mice. Particulars: after 3 weeks of therapy; western blot; vs saline control. The source says: Dynamic contrast-enhanced (DCE) MRI is a non-invasive imaging technique that is able to quantify the anatomical and physiological progression of tumor angiogenesis in response to a variety of different cancer therapies. In order to allow for the safe use of macromolecular contrast medium, a novel polydisulfide-based agent, poly([(Gd-DOTA)-DETA]-co-DTBP) (GODP) was designed, which initially starts as a macromolecular agent during an DCE-MRI protocol, and is then gradually degraded by endogenous thiols in the reductive environment of the bloodstream to improve renal clearance. In this study, two groups of 3 mice, bearing flank HT29 colon cancer xenografts, were treated daily with either bumetanide or saline for a total of 3 weeks. DCE-MRI was performed before and after the start of treatment on a weekly basis, and the collected was analyzed using the adiabiatic approximation to the tissue homogeneity (AATH) model. IHC and western blot analysis was performed to study the changes in CD31, VEGF, and tissue hypoxia. […] Image J software was utilized to quantify the relative protein expression of HIF-1α from the blots by calculating the total pixel intensity from each protein band, and then normalizing these signals with its corresponding β-actin stain. […]

Test [1] has as its system HT29 colon cancer xenografts. The experiment in a line: Pimonidazole staining of tumor hypoxia. It counts as in vivo, athymic nude mice. Particulars: after 3-week therapy; vs saline control. Here is the method: (§1) Once the final DCE-MRI scans were complete at the end of the therapy, the mice were intravenously injected with 60 mg/kg of pimonidazole, an established marker for the detection of tissue hypoxia. After one hour following the pimonidazole staining, the tumors from these mice were resected for further biological analysis. Half of each tumor that was collected was snap-frozen in liquid nitrogen for western blot, while the other half was sliced into thin sections and formalin-fixed/paraffin-imbedded for immunohistochemistry (IHC) staining. For western blot, cell lysates from the frozen tissue were prepared by homogenizing entire tumor tissues in RIPA lysis buffer supplemented with a Halt protease inhibitor cocktail (Thermo Fisher Scientific). […] The blots were blocked for 1 hr and then stained overnight at 4° C. with primary antibodies for HIF-1α and β-actin, the latter of which serving as the housekeeper control. Image J software was utilized to quantify the relative protein expression of HIF-1α from the blots by calculating the total pixel intensity from each protein band, and then normalizing these signals with its corresponding β-actin stain. Sections of the formalin-fixed tissue were stained with the antibodies for CD31 and the Ki67 nuclear proliferation marker. They were also stained with a primary antibody for the detection of the pimonidazole hypoxia marker. […]

For another test, the system named is HIF-1α. The experiment in a line: Western blot of HIF-1α in tumor tissue. It counts as in vivo, athymic nude mice. Conditions: after 3 weeks of therapy, vs saline control. Here is the method:
as §1
On the technique in general: In western blotting, separated proteins are transferred to a membrane and probed.

The subject of test [2] is HT29 colon cancer xenografts. The experiment in a line: DCE-MRI with GODP, AATH model, tumor vascularity. It counts as in vivo, athymic nude mice. Particulars: 3-week time point; 10 mg/kg i.p. daily; entire tumor; mean±SD. An excerpt:
Dynamic contrast-enhanced (DCE) MRI is a non-invasive imaging technique that is able to quantify the anatomical and physiological progression of tumor angiogenesis in response to a variety of different cancer therapies. In order to allow for the safe use of macromolecular contrast medium, a novel polydisulfide-based agent, poly([(Gd-DOTA)-DETA]-co-DTBP) (GODP) was designed, which initially starts as a macromolecular agent during an DCE-MRI protocol, and is then gradually degraded by endogenous thiols in the reductive environment of the bloodstream to improve renal clearance. In this study, two groups of 3 mice, bearing flank HT29 colon cancer xenografts, were treated daily with either bumetanide or saline for a total of 3 weeks. DCE-MRI was performed before and after the start of treatment on a weekly basis, and the collected was analyzed using the adiabiatic approximation to the tissue homogeneity (AATH) model. IHC and western blot analysis was performed to study the changes in CD31, VEGF, and tissue hypoxia.
The anti-angiogenic effects of bumetanide were investigated in a mouse model bearing subcutaneous HT29 colon adenocarcinoma xenografts. HT29 cells were initially cultured in McCoy's 5A growth media (ATCC), supplemented with 10% FBS, […] of streptomycin, and 100 units/mL of penicillin (Invitrogen). A total of 1×10^6 cells were then inoculated into athymic nude mice in a 250 μL volume of Matrigel (BD Biosciences). Before the start of treatment, tumors were allowed to grow for 10 days, until they were approximately 0.5 cm in diameter. This study comprised of 2 groups of 3 mice, one of which was treated with bumetanide, and the other with a saline control. […] Tumor growth was measured at several time points during the therapy with a caliper. Volumes were calculated using the formula […], where D1 and D2 were two diameters measured along perpendicular axes of the tumor lesion.
Changes in the tumor vascularity were monitored during the treatment by DCE-MRI. […]

The test system of the next test is CD31. The experiment in a line: IHC stain for CD31 in tumor tissue. It counts as in vivo, athymic nude mice. Conditions: after 3-week therapy, tumor periphery and core, vs saline control. How it is done: as §1
Test [3] has as its system HT29 colon adenocarcinoma xenografts. The experiment in a line: Tumor growth measured with a caliper. It counts as in vivo, athymic nude mice. Particulars: any point during the 3-week administration period. Here is the method:
The anti-angiogenic effects of bumetanide were investigated in a mouse model bearing subcutaneous HT29 colon adenocarcinoma xenografts. HT29 cells were initially cultured in McCoy's 5A growth media (ATCC), supplemented with 10% FBS, […] of streptomycin, and 100 units/mL of penicillin (Invitrogen). A total of 1×10^6 cells were then inoculated into athymic nude mice in a 250 μL volume of Matrigel (BD Biosciences). Before the start of treatment, tumors were allowed to grow for 10 days, until they were approximately 0.5 cm in diameter. This study comprised of 2 groups of 3 mice, one of which was treated with bumetanide, and the other with a saline control. The drug and saline control were injected intraperitoneally on a daily basis for 3 weeks, with a bumetanide dose of 10 mg/kg. All mice were sacrificed on day 21 of the treatment regimen. Tumor growth was measured at several time points during the therapy with a caliper. Volumes were calculated using the formula […], where D1 and D2 were two diameters measured along perpendicular axes of the tumor lesion.

The results in this text go back to patent publication US10172815B2, “Targeted treatment of anerobic cancer” (UNIVERSITY HOSPITALS CLEVELAND MEDICAL CENTER, priority 2013, dated 2019).

Where “and” joins values, the source holds several entries; their conditions need not be identical. Identical values can stand only once.

As for `O=C(O)/C=C/c1ccc(O)c(O)c1` [caffeic acid], the “relative tumor volume comparing the different treatments (FIG. 25)” value in the test with N1-S1 hepatoma was “effective at reducing tumor volume”.

Regarding `COc1cc(/C=C/C(=O)O)ccc1O` [ferulic acid], the “relative tumor volume comparing the different treatments (FIG. 25)” value with N1-S1 hepatoma is “effective at reducing tumor volume”.

For the compound `CCCCNc1cc(C(=O)O)cc(S(N)(=O)=O)c1Oc1ccccc1` [bumetanide, 3-butylamino-4-phenoxy-5-sulfamoyl-benzoic acid], in the test on Ki67, the “Ki67 index (percentage of nuclei expressing Ki67)” value was ~24.7±4.51%. Besides, the “VEGF protein levels lower than in control tumors” value with VEGF was found to be 42.9%. The “tumor hypoxia (pimonidazole staining intensity)” value in test [1] is listed as “increase”. In addition, the “HIF-1α expression greater than in control tumors” value in the test on HIF-1α was 59.1% and 59.2%. For the same compound, in test [2], the “average decrease in Fp (blood flow rate) between pre- and post-treatment levels” value amounted to 71.2±8.01%; the “average reduction in PS (permeability-surface area product) from pre-treatment level” value is reported as 72.2±9.26%; the “average reduction in Vp (fractional plasma volume) from pre-treatment level” value was determined as 75.6±8.97%. For the same compound, the CD31 expression result in the test on CD31 is given as “significant decrease”. For the same compound, the “tumor size versus saline control” value in test [3] is on record as “no significant difference”. Further, the “relative tumor volume comparing the different treatments (FIG. 25)” value with N1-S1 hepatoma is “effective at reducing tumor volume”.
